“Also recorded” adds a separate entry of the source. Read-outs that look alike come from different tables or passages of the source. Ends that are not written are not given here.
Columns and labels:
[1] = test system: ADNP+/− mice; assay: Object recognition test in ADNP-deficient mice; format: in vivo, mouse; details: intranasal, twice a day, 1 month, ADNP+/− male mice
Source text: (§1) All procedures involving animals were approved by the Animal Care and Use Committee of Tel Aviv University and the National Institutes of Health (Bethesda, Md.). ADNP heterozygous mice, a model for cognitive impairments (Vulih-Shultzman et al., 2007, J. Pharmacol. Exp. Ther. 323:438-449), were housed in a 12-h light/12-h dark cycle facility, and free access to rodent chow and water was available.
(§2) SKIP (SEQ ID NO:6) treatment included daily intranasal administrations over a 1 month period to 5-month-old male mice (2 μg/5 μl/mouse/day). For intranasal administration, the peptide was dissolved in a vehicle solution, in which each milliliter included 7.5 mg of NaCl, 1.7 mg of citric acid monohydrate, 3 mg of disodium phosphate dihydrate, and 0.2 mg of benzalkonium chloride solution (50%). SKIP (SEQ ID NO:6) or vehicle solution (DD) was administered to mice hand-held in a semisupine position with nostrils facing the investigator. A pipette tip was used to administer 5 μl/each nostril. The mouse was handheld until the solution was totally absorbed (˜10 s). Nasal SKIP (SEQ ID NO:6) application was performed daily, twice a day, for 1 month (5 days a week). After 1 month, SKIP (SEQ ID NO:6) was applied 2 h before the behavioral tests (described below).
The test includes 2 consecutive days of habituation (five minutes per day) and the experimental day which consists of the three phases. The test was conducted two hours after the daily intranasal SKIP (SEQ ID NO:6). During the first phase (Phase 1, habituation phase), the open field apparatus (arena of 50×50 cm) contained two identical objects (samples) and a mouse was placed in the apparatus facing the wall and allowed to freely explore the objects. At the end of the 5-min session of Phase 1, the mouse was put back into its home cage for 3 hours. […] The time spent sniffing/touching each object was measured. The data was analyzed using the following formula: D1=b−a, when ‘a’ designated the time of exploration of the familiar object and ‘b’ designated the time of exploration of the novel object. […]

[2] = test system: ADNP+/− mice; assay: Elevated plus-maze in ADNP-deficient mice; format: in vivo, mouse; details: intranasal treatment, ADNP+/− male mice, 5 min
Source text: as §1
as §2, with “Nasal SKIP (SEQ ID NO:6) application was performed daily, twice a day, for 1 month (5 days a week). After 1 month, SKIP (SEQ ID NO:6) was applied 2 h before the behavioral tests (described below).” left out
The maze consisted of two open arms (50 cm×10 cm) and two closed arms 50 cm×10 cm×40 cm), with arms of each type opposite to each other. […] The data were analyzed using the following formula: D2=(b−a)/(b+a), when ‘a’ designated the time spent in the open arm and ‘b’ designated the time spent in the closed arm.

[3] = test system: PC12 cells; details: ZnCl2 400 μM, 4 h
Protocol: FIG. 15: Rat pheochromocytoma cells (PC12) were seeded on Poly-D-Lysine coated 96-well tissue culture dishes in high concentration (30,000 cells/well). On the day of the experiment the cells were treated with ZnCl2 (400 μM) either alone or in combination with different concentration of SKIP for 4 h. After 4 h the cell viability was analyzed by MTS assay. […] All values are from one experiment performed in hexplicate.
Rat pheochromocytoma cell (PC12, ATCC, Bethesda, Md., USA) were grown in 10-cm tissue culture dishes (Corning). The base medium for this cell line was RPMI-1640 Medium (Invitrogen) supplemented with 10% heat-inactivated horse serum, 5% fetal bovine serum and solution containing 100 U/ml penicillin together with […] streptomycin (Biological Industries, Beit Haemek, Israel). The cells were incubated in 95% air; 5% CO2 in a humidified incubator at 37° C. The medium was changed every 2 to 3 days. The cells were subcultured when cell density reached 4×10^6 cells/ml. The cells were split in a ratio of 1:4.
On the day before the experiment cells were to be harvested, re-suspended and seeded on tissue culture dishes. For cell viability measurements, cells were seeded on Poly-D-Lysine coated 96-well tissue culture dishes (Sigma-Aldrich) at a concentration of 3×10^4 cells/well.
The cell viability is measured by colorimetric method that determines the number of viable cells in culture. This method is based on the bio-reduction of the tetrazolium compound [3-(4,5-dimethylthiazol-2-yl)-5-(3-carboxymethoxyphenyl)-2-(4-sulfophenyl)-2H-tetrazolium; MTS] by living cells into a colored formazan product. This reaction is occurring in the presence of an electron coupling reagent (phenazine ethosulfate; PES). The amount of formazan product is measured by ELISA plate reader at 490 nm and is directly proportional to the number of living cells in culture (CellTiter 96® AQueous One Solution Cell Proliferation Assay; Promega, Madison, Wis., USA).

[4] = test system: ADNP+/− mice; assay: Morris water maze in ADNP-deficient mice; format: in vivo, mouse; details: intranasal, twice a day, 1 month, ADNP+/− male mice
Source text: as §1
SKIP (SEQ ID NO:6) treatment included daily intranasal administrations over a 1 month period to 5-month-old male mice (2 μg/5 μl/mouse/day). […]
The apparatus was a pool with a diameter of 140 cm, filled with opaque water (23-24° C.). […] The time taken for an animal to reach the platform (latency) was recorded. The daily improvement (in seconds to reach the hidden platform) for each animal (in comparison to the starting day) was calculated. […] The platform was removed from the maze and the distance traveled and the time spent by the mice in the pool's quarter where the platform used to be, were recorded (for a maximal period of 90 s). Mouse behavior in the quarter that is most distant from the target quarter was also measured. All measurements were recorded as the percentage of the total time spent or total path traveled in the pool. To determine the general mobility of the mice in the pool, the swimming behavior of each animal was monitored and the total path length and swim velocity were calculated. […]

For “SKIP (not fully specified (N-terminus, C-terminus)) [SKIP (SEQ ID NO:6), 4-amino acid peptide Ser-Lys-Ile-Pro]”, the “object recognition, Phase 2 short retention (discrimination index D1)” value [1] was “improved short and long term memory”, the “object recognition, Phase 3 long retention, 24 hours (discrimination index D1)” value [1] was “improvement in long term memory for the ADNP-deficient mice, bringing them to the control levels; also recorded: improved short and long term memory” and the “risky behavior, time spent in open vs closed arms” value [2] was “reduction in the risky behavior; also recorded: improvement in the risky behavior”. The “protection against Zn intoxication (MTS viability vs Zn alone)” value ([3]; peptide 10^−9M) was “showed protection”, the “protection against Zn intoxication (MTS viability vs Zn alone)” value ([3]; peptide 10^−15M) was “showed protection” and the “water maze first daily test (reference memory), latency to hidden platform” value [4] was “improved learning on the 2nd day; also recorded: improved the memory”. For the same substance, the “water maze second daily test, 5th day, latency to hidden platform” value [4] was “improvement in the behavior of the ADNP-deficient mice, bringing them to the control levels”.

Reference: patent publication US10118943B2, “Compounds and methods for inhibiting cell death” (Ramot at Tel-Aviv University Ltd., priority 2012, dated 2018)
